Laboratory results: ChEMBL document CHEMBL1949662, “JBIR-94 and JBIR-125, antioxidative phenolic compounds from Streptomyces sp. R56-07” (J Nat Prod, 2012)

Test system: Radical scavenging activity
Assay: Antioxidant activity assessed as DPPH free radical scavenging activity after 30 mins
Type: functional

IC50 [µM]	SMILES
11.4	COc1cc(CCC(=O)NCCCCNC(=O)CCc2ccc(O)c(OC)c2)ccc1O
35.1	CC(=O)NCCCCN(CCCNC(=O)CCc1ccc(O)cc1)C(=O)CCc1ccc(O)cc1
9	Cc1c(C)c2c(c(C)c1O)CC[C@@](C)(CCC[C@H](C)CCC[C@H](C)CCCC(C)C)O2 [ALPHA-TOCOPHEROL]
